Target: GDP-loaded KRAS G12D (Homo sapiens, UniProt P01116, G12D)
Assay: KRAS G12D Probe Displacement Assay
Format: binding
Conditions: KRAS G12D 0.5 nM, biotinylated probe 2 4 nM; Table 6 letters; read-out: KRAS G12D Probe Displacement Assay IC50 (class)

Chain of GDP-loaded KRAS G12D (P01116 1-188 isoform P01116-2 G12D): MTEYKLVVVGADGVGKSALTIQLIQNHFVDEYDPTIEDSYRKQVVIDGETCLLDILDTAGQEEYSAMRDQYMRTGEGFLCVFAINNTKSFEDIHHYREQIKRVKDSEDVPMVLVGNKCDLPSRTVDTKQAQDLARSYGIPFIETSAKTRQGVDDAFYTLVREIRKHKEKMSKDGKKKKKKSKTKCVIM

Compound | IC50
CN1C[C@H](F)C[C@]1(C)COc1nc(N2C3CNCC2COC3)c2cc(C(F)(F)F)c(-c3ccc(F)c4sc(N)nc34)c(F)c2n1 [Example E122, 4-(4-(3-oxa-7,9-diazabicyclo[3.3.1]nonan-9-yl)-8-fluoro-2-(((2R,4R)-4-fluoro-1,2-dimethylpyrrolidin-2-yl)methoxy)-6-(trifluoromethyl)quinazolin-7-yl)-7-fluorobenzo[d]thiazol-2-amine] | < 50 nM
Oc1cc(Cl)c(C2CC2)c(-c2c(Cl)cc3c(N4CC5CCC(C4)N5)nc(OC[C@@]45CCCN4C[C@H](F)C5)nc3c2F)c1 [Example E123, 3-(4-(3,8-diazabicyclo[3.2.1]octan-3-yl)-6-chloro-8-fluoro-2-(((2R,7aS)-2-fluorotetrahydro-1H-pyrrolizin-7a(5H)-yl)methoxy)quinazolin-7-yl)-5-chloro-4-cyclopropylphenol] | < 50 nM
N#CCCNC1C[C@H]2CC[C@@H]1N2c1nc(OC[C@@]23CCCN2C[C@H](F)C3)nc2c(F)c(-c3ccc(F)c4sc(N)nc34)c(C(F)(F)F)cc12 (stereo partly drawn) [Example E124, 3-(((1S,4R)-7-(7-(2-amino-7-fluorobenzo[d]thiazol-4-yl)-8-fluoro-2-(((2R,7aS)-2-fluorotetrahydro-1H-pyrrolizin-7a(5H)-yl)methoxy)-6-(trifluoromethyl)quinazolin-4-yl)-7-azabicyclo[2.2.1]heptan-2-yl)amino)propanenitrile] | < 50 nM
C=Cc1cc(N)nc(-c2c(Cl)cc3c(N4CC5CCC(C4)N5)nc(OC[C@@]45CCCN4C[C@H](F)C5)nc3c2F)c1C(F)(F)F [Example E125, 6-(4-(3,8-diazabicyclo[3.2.1]octan-3-yl)-6-chloro-8-fluoro-2-(((2R,7aS)-2-fluorotetrahydro-1H-pyrrolizin-7a(5H)-yl)methoxy)quinazolin-7-yl)-5-(trifluoromethyl)-4-vinylpyridin-2-amine] | < 50 nM
Oc1cc(F)c(C(F)(F)F)c(-c2c(Cl)cc3c(N4CC5CCC(C4)N5)nc(OC[C@@]45CCCN4C[C@H](F)C5)nc3c2F)c1 [Example E126, 3-(4-(3,8-diazabicyclo[3.2.1]octan-3-yl)-6-chloro-8-fluoro-2-(((2R,7aS)-2-fluorotetrahydro-1H-pyrrolizin-7a(5H)-yl)methoxy)quinazolin-7-yl)-5-fluoro-4-(trifluoromethyl)phenol] | < 50 nM
Nc1nc2c(-c3c(C(F)(F)F)cc4c(N5C6CNCC5C6)nc(OC[C@@]56CCCN5C[C@H](F)C6)nc4c3F)ccc(F)c2s1 [Example E127, 4-(4-(3,6-diazabicyclo[3.1.1]heptan-6-yl)-8-fluoro-2-(((2R,7aS)-2-fluorotetrahydro-1H-pyrrolizin-7a(5H)-yl)methoxy)-6-(trifluoromethyl)quinazolin-7-yl)-7-fluoro benzo[d]thiazol-2-amine] | < 50 nM
Nc1nc2c(-c3cc4nc(OC[C@@]56CCCN5C[C@H](F)C6)nc(N5CC6CCC(C5)N6)c4cc3C(F)(F)F)ccc(F)c2s1 [Example E128, 4-(4-(3,8-diazabicyclo[3.2.1]octan-3-yl)-2-(((2R,7aS)-2-fluorotetra hydro-1H-pyrrolizin-7a(5H)-yl)methoxy)-6-(trifluoromethyl)quinazolin-7-yl)-7-fluorobenzo[d] thiazol-2-amine] | < 50 nM
Cc1cc(N)nc(-c2c(C3CC3)cc3c(N4CC5CCC(C4)N5)nc(OC[C@@]45CCCN4C[C@H](F)C5)nc3c2F)c1C(F)(F)F [Example E129, 6-(4-(3,8-diazabicyclo[3.2.1]octan-3-yl)-6-cyclopropyl-8-fluoro-2-(((2R,7aS)-2-fluorotetrahydro-1H-pyrrolizin-7a(5H)-yl)methoxy)quinazolin-7-yl)-4-methyl-5-(trifluoromethyl)pyridin-2-amine] | < 50 nM
CC(F)(F)c1c(Cl)cc(N)nc1-c1c(Cl)cc2c(N3CC4CCC(C3)N4)nc(OC[C@@]34CCCN3C[C@H](F)C4)nc2c1F [Example E130, 6-(4-(3,8-diazabicyclo[3.2.1]octan-3-yl)-6-chloro-8-fluoro-2-(((2R,7aS)-2-fluorotetrahydro-1H-pyrrolizin-7a(5H)-yl)methoxy)quinazolin-7-yl)-4-chloro-5-(1,1-difluoroethyl)pyridin-2-amine] | < 50 nM
COCC1CCC2(COc3nc(N4CC5CCC(C4)N5)c4cc(C(F)(F)F)c(-c5ccc(F)c6sc(N)nc56)c(F)c4n3)CCCN12 (centres unmarked) [Example E131, 4-(4-(3,8-diazabicyclo[3.2.1]octan-3-yl)-8-fluoro-2-((3-(methoxymethyl)tetrahydro-1H-pyrrolizin-7a(5H)-yl)methoxy)-6-(trifluoromethyl)quinazolin-7-yl)-7-fluorobenzo[d]thiazol-2-amine] | < 50 nM
N#Cc1c(N)sc2c(F)ccc(-c3c(Cl)cc4c(N5CC6CCC(C5)N6)nc(OCC5(CN6CCC(F)C6)CCC5)nc4c3F)c12 (centres unmarked) [Example E132, 4-(4-(3,8-diazabicyclo[3.2.1]octan-3-yl)-6-chloro-8-fluoro-2-((1-((3-fluoropyrrolidin-1-yl)methyl)cyclobutyl)methoxy)quinazolin-7-yl)-2-amino-7-fluorobenzo [b]thiophene-3-carbonitrile] | < 50 nM
Cc1cc(N)nc(-c2c(Cl)cc3c(N4CC5CCC(C4)N5)nc(OCC45CCCN4C(CF)CC5)nc3c2F)c1C(F)(F)F (centres unmarked) [Example E133, 6-(4-(3,8-diazabicyclo[3.2.1]octan-3-yl)-6-chloro-8-fluoro-2-((3-(fluoromethyl)tetrahydro-1H-pyrrolizin-7a(5H)-yl)methoxy)quinazolin-7-yl)-4-methyl-5-(trifluoromethyl)pyridin-2-amine] | < 50 nM
COCC1CC2(COc3nc(N4CC5CCC(C4)N5)c4cc(C(F)(F)F)c(-c5ccc(F)c6sc(N)nc56)c(F)c4n3)CC(F)CN12 (centres unmarked) [Example E134, 4-(4-(3,8-diazabicyclo[3.2.1]octan-3-yl)-8-fluoro-2-((3-fluoro-7-(methoxymethyl)-1-azabicyclo[3.2.0]heptan-5-yl)methoxy)-6-(trifluoromethyl)quinazolin-7-yl)-7-fluorobenzo[d]thiazol-2-amine] | < 50 nM
Cn1nc(N)c(-c2cc3nc(OC[C@@]45CCCN4C[C@H](F)C5)nc(N4CC5CCC(C4)N5)c3cc2Cl)c1C1CC1 [Example E135, 4-(4-(3,8-diazabicyclo[3.2.1]octan-3-yl)-6-chloro-2-(((2R,7aS)-2-fluorotetrahydro-1H-pyrrolizin-7a(5H)-yl)methoxy)quinazolin-7-yl)-5-cyclopropyl-1-methyl-1H-pyrazol-3-amine] | > 1000 nM
F[C@H]1CN2CCC[C@@]2(COc2nc(N3CC4CCC(C3)N4)c3cc(Cl)c(-n4ncc5cccc(Cl)c54)cc3n2)C1 [Example E136, 4-(3,8-diazabicyclo[3.2.1]octan-3-yl)-6-chloro-7-(7-chloro-1H-indazol-1-yl)-2-(((2R,7aS)-2-fluorotetrahydro-1H-pyrrolizin-7a(5H)-yl)methoxy)quinazoline] | > 1000 nM
COC[C@@]1(COc2nc(N3C4CNCC3COC4)c3cc(F)c(-c4nc(N)cc(C)c4C(F)(F)F)c(F)c3n2)C[C@@H](F)CN1C [Example E137, 6-(4-(3-oxa-7,9-diazabicyclo[3.3.1]nonan-9-yl)-6,8-difluoro-2-(((2R,4R)-4-fluoro-2-(methoxymethyl)-1-methylpyrrolidin-2-yl)methoxy)quinazolin-7-yl)-4-methyl-5-(trifluoromethyl)pyridin-2-amine] | 100 to 1000 nM
COC1CN2CC(F)CC2(COc2nc(N3C4CNCC3COC4)c3cc(F)c(-c4nc(N)cc(C)c4C(F)(F)F)c(F)c3n2)C1 (centres unmarked) [Example E138, 6-(4-(3-oxa-7,9-diazabicyclo[3.3.1]nonan-9-yl)-6,8-difluoro-2-((2-fluoro-6-methoxytetrahydro-1H-pyrrolizin-7a(5H)-yl)methoxy)quinazolin-7-yl)-4-methyl-5-(trifluoromethyl)pyridin-2-amine] | 100 to 1000 nM
Nc1nc2c(-c3c(C(F)(F)F)cc4c(N5C6CNCC5COC6)nc(OCC56CC(F)CN5CC(F)C6)nc4c3F)ccc(F)c2s1 (centres unmarked) [Example E139, 4-(4-(3-oxa-7,9-diazabicyclo[3.3.1]nonan-9-yl)-2-((2,6-difluorotetrahydro-1H-pyrrolizin-7a(5H)-yl)methoxy)-8-fluoro-6-(trifluoromethyl)quinazolin-7-yl)-7-fluorobenzo[d]thiazol-2-amine] | < 50 nM
Nc1nc2c(-c3c(Cl)cc4c(N5CC6CCC(C5)N6)nc(OC[C@@]56CCCN5C[C@H](F)C6)nc4c3F)cc(Cl)cc2s1 [Example E140, 4-(4-(3,8-diazabicyclo[3.2.1]octan-3-yl)-6-chloro-8-fluoro-2-(((2R,7aS)-2-fluorotetrahydro-1H-pyrrolizin-7a(5H)-yl)methoxy)quinazolin-7-yl)-6-chlorobenzo [d]thiazol-2-amine] | < 50 nM
Nc1nc2c(-c3c(C(F)(F)F)cc4c(N5CC6CCC(C5)N6)nc(OCC(O)CO)nc4c3F)ccc(F)c2s1 (centres unmarked) [Example E141, 3-((7-(2-amino-7-fluorobenzo[d]thiazol-4-yl)-4-(3,8-diazabicyclo [3.2.1]octan-3-yl)-8-fluoro-6-(trifluoromethyl)quinazolin-2-yl)oxy)propane-1,2-diol] | < 50 nM
CC(CO)COc1nc(N2CC3CCC(C2)N3)c2cc(C(F)(F)F)c(-c3ccc(F)c4sc(N)nc34)c(F)c2n1 (centres unmarked) [Example E142, 3-((7-(2-amino-7-fluorobenzo[d]thiazol-4-yl)-4-(3,8-diazabicyclo [3.2.1]octan-3-yl)-8-fluoro-6-(trifluoromethyl)quinazolin-2-yl)oxy)-2-methylpropan-1-ol] | < 50 nM
Nc1nc2c(-c3c(C(F)(F)F)cc4c(N5CC6CCC(C5)N6)nc(OC5CCOC5)nc4c3F)ccc(F)c2s1 (centres unmarked) [Example E143] | < 50 nM
Nc1nc2c(-c3c(C(F)(F)F)cc4c(N5CC6CCC(C5)N6)nc(OCC5CCOCC5)nc4c3F)ccc(F)c2s1 [Example E144, 4-(4-(3,8-diazabicyclo[3.2.1]octan-3-yl)-8-fluoro-2-((tetrahydro-2H-pyran-4-yl)methoxy)-6-(trifluoromethyl)quinazolin-7-yl)-7-fluorobenzo[d]thiazol-2-amine] | < 50 nM
